# Measured values: patent US20210386367A1, “DEVICES AND SYSTEMS FOR GASTROINTESTINAL MICROBIOME DETECTION AND MANIPULATION” (Progenity, Inc., priority 2018, published 2021)
# “Also recorded” adds a separate entry of the source. Like-named read-outs stand apart in the source and are kept apart here.
# Columns and labels:
# Assay type in all cases: cell-based
# Enterobacter aerogenes = test: Broth microdilution MIC, 50 clinical isolates; details: for MIC50 / MIC90: Klebsiella aerogenes; for MIC50: read-out: MIC50; for MIC90: read-out: MIC90
# Procedure, shortened: (§1)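 Medium: cation-adjusted MHB, plus 3% lysed horse blood for streptococci, which were incubated with CO2 planchets. Final inoculum approx. 5×10^5 CFU/mL; serial two-fold drug dilutions per CLSI.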
# Proteus mirabilis = test: Broth microdilution MIC, 50 clinical isolates; details: for MIC50 / MIC90: Proteus mirabilis; for MIC50: read-out: MIC50; for MIC90: read-out: MIC90
# Procedure, shortened: as §1
# Pseudomonas aeruginosa = test: Broth microdilution MIC, 50 clinical isolates; details: for MIC50 / MIC90: Pseudomonas aeruginosa; for MIC50: read-out: MIC50; for MIC90: read-out: MIC90
# Procedure, shortened: as §1
# Prevotella spp. = test: Agar dilution MIC, 30 clinical isolates
# [1] = 30 Prevotella spp. clinical isolates
smiles,measurement,setting,value
C[C@@H](O)[C@H]1C(=O)N2C(C(=O)O)=C(S[C@@H]3CN[C@H](C(=O)N(C)C)C3)[C@H](C)[C@H]12 [meropenem],% I,Enterobacter aerogenes,2%
same,% S,Enterobacter aerogenes,Ninety-eight
same,MIC range,Enterobacter aerogenes,0.015 to 2 µg/mL
same,Mode,Enterobacter aerogenes,0.03 µg/mL
same,relative activity among drugs tested,Enterobacter aerogenes,most active drug evaluated; also recorded: most active agent
same,Cumulative percentage of isolates inhibited at MIC,Enterobacter aerogenes; 0.015 μg/mL,36.0%
same,Number of test isolates at MIC,Enterobacter aerogenes; 0.015 μg/mL,18
same,Cumulative percentage of isolates inhibited at MIC,Enterobacter aerogenes; 0.03 μg/mL,80.0%
same,Number of test isolates at MIC,Enterobacter aerogenes; 0.03 μg/mL,22
same,Cumulative percentage of isolates inhibited at MIC,Enterobacter aerogenes; 0.06 μg/mL,94.0%
same,Number of test isolates at MIC,Enterobacter aerogenes; 0.06 μg/mL,7
same,Cumulative percentage of isolates inhibited at MIC,Enterobacter aerogenes; 1 μg/mL,98.0%
same,Number of test isolates at MIC,Enterobacter aerogenes; 1 μg/mL,1
same,Cumulative percentage of isolates inhibited at MIC,Enterobacter aerogenes; 2 μg/mL,100.0%
same,Number of test isolates at MIC,Enterobacter aerogenes; 2 μg/mL,1
same,MIC50,Enterobacter aerogenes,0.03 µg/mL
same,MIC90,Enterobacter aerogenes,0.06 µg/mL
same,Cumulative percentage of isolates inhibited at MIC,Enterobacter aerogenes; […],96.0%
same,Number of test isolates at MIC,Enterobacter aerogenes; […],1
same,% I,Enterobacter aerogenes; listed as MEM,2%
same,% S,Enterobacter aerogenes; listed as MEM,98%
same,% S,Proteus mirabilis,98%
same,MIC range,Proteus mirabilis,≤0.008 to 2 µg/mL
same,Mode,Proteus mirabilis,0.06 µg/mL
same,Cumulative percentage of isolates inhibited at MIC,Proteus mirabilis; 0.03 μg/mL,38.0%
same,Number of test isolates at MIC,Proteus mirabilis; 0.03 μg/mL,18
same,Cumulative percentage of isolates inhibited at MIC,Proteus mirabilis; 0.06 μg/mL,82.0%
same,Number of test isolates at MIC,Proteus mirabilis; 0.06 μg/mL,2
same,Cumulative percentage of isolates inhibited at MIC,Proteus mirabilis; 2 μg/mL,100.0%
same,Number of test isolates at MIC,Proteus mirabilis; 2 μg/mL,1
same,MIC50,Proteus mirabilis,0.06 µg/mL
same,MIC90,Proteus mirabilis,0.12 µg/mL
same,% I,Proteus mirabilis; listed as MEM,2% ^
same,Cumulative percentage of isolates inhibited at MIC,Proteus mirabilis; ≤0.008 μg/mL,2.0%
same,Number of test isolates at MIC,Proteus mirabilis; ≤0.008 μg/mL,1
same,% I,Pseudomonas aeruginosa,10%
same,% R,Pseudomonas aeruginosa,Eighteen
same,% S,Pseudomonas aeruginosa,72%
same,Mode,Pseudomonas aeruginosa,0.25 µg/mL
same,relative activity among drugs tested,Pseudomonas aeruginosa,most active drug evaluated; also recorded: most active agent
same,Cumulative percentage of isolates inhibited at MIC,Pseudomonas aeruginosa; 0.03 μg/mL,2.0%
same,Number of test isolates at MIC,Pseudomonas aeruginosa; 0.03 μg/mL,1
same,Cumulative percentage of isolates inhibited at MIC,Pseudomonas aeruginosa; 0.06 μg/mL,6.0%
same,Number of test isolates at MIC,Pseudomonas aeruginosa; 0.06 μg/mL,2
same,Cumulative percentage of isolates inhibited at MIC,Pseudomonas aeruginosa; 0.5 μg/mL,56.0%
same,Number of test isolates at MIC,Pseudomonas aeruginosa; 0.5 μg/mL,5
same,Cumulative percentage of isolates inhibited at MIC,Pseudomonas aeruginosa; 1 μg/mL,66.0%
same,Number of test isolates at MIC,Pseudomonas aeruginosa; 1 μg/mL,5
same,Cumulative percentage of isolates inhibited at MIC,Pseudomonas aeruginosa; 2 μg/mL,72.0%
same,Number of test isolates at MIC,Pseudomonas aeruginosa; 2 μg/mL,3
same,Cumulative percentage of isolates inhibited at MIC,Pseudomonas aeruginosa; 4 μg/mL,84.0%
same,Number of test isolates at MIC,Pseudomonas aeruginosa; 4 μg/mL,6
same,Cumulative percentage of isolates inhibited at MIC,Pseudomonas aeruginosa; 8 μg/mL,92.0%
same,Number of test isolates at MIC,Pseudomonas aeruginosa; 8 μg/mL,4
same,Cumulative percentage of isolates inhibited at MIC,Pseudomonas aeruginosa; >8 μg/mL,100.0%
same,Number of test isolates at MIC,Pseudomonas aeruginosa; >8 μg/mL,4
same,MIC50,Pseudomonas aeruginosa,0.5 µg/mL
same,MIC90,Pseudomonas aeruginosa,8 µg/mL
same,% I,Pseudomonas aeruginosa; listed as MEM,10%
same,% R,Pseudomonas aeruginosa; listed as MEM,18%
same,MIC range,Prevotella spp.,≤0.008 to 0.3 µg/mL
same,isolates susceptible,Prevotella spp.,All were susceptible
same,relative activity among drugs tested,Prevotella spp.,most active drug tested; also recorded: most active agent
same,% S,Prevotella spp.; [1],100%
same,MIC50,Prevotella spp.; [1],0.06 µg/mL
same,MIC90,Prevotella spp.; [1],0.12 µg/mL
same,MIC range,Prevotella spp.; [1],≤0.008 to 0.3 µg/mL
same,MIC50,"Prevotella spp.; Prevotella, read-out: MIC50",0.06 µg/mL
same,MIC90,"Prevotella spp.; Prevotella, read-out: MIC90",0.12 µg/mL
same,Mode,"Prevotella spp.; modal MIC, 30 Prevotella spp. clinical isolates",0.06 µg/mL
COc1c(N2C[C@@H]3CCCN[C@@H]3C2)c(F)cc2c(=O)c(C(=O)O)cn(C3CC3)c12 [moxifloxacin],MIC range,Enterobacter aerogenes,0.03 to 0.5 µg/mL
same,Mode,Enterobacter aerogenes,0.12 µg/mL
same,Cumulative percentage of isolates inhibited at MIC,Enterobacter aerogenes; 0.03 μg/mL,10.0%
same,Number of test isolates at MIC,Enterobacter aerogenes; 0.03 μg/mL,5
same,Cumulative percentage of isolates inhibited at MIC,Enterobacter aerogenes; 0.06 μg/mL,50.0%
same,Number of test isolates at MIC,Enterobacter aerogenes; 0.06 μg/mL,20
same,Cumulative percentage of isolates inhibited at MIC,Enterobacter aerogenes; 0.5 μg/mL,100.0%
same,Number of test isolates at MIC,Enterobacter aerogenes; 0.5 μg/mL,2
same,MIC50,Enterobacter aerogenes,0.06 µg/mL
same,MIC90,Enterobacter aerogenes,0.12 µg/mL
same,Mode,Proteus mirabilis,0.25 µg/mL
same,Cumulative percentage of isolates inhibited at MIC,Proteus mirabilis; 0.5 μg/mL,60.0%
same,Number of test isolates at MIC,Proteus mirabilis; 0.5 μg/mL,9
same,Cumulative percentage of isolates inhibited at MIC,Proteus mirabilis; 1 μg/mL,64.0%
same,Number of test isolates at MIC,Proteus mirabilis; 1 μg/mL,2
same,Cumulative percentage of isolates inhibited at MIC,Proteus mirabilis; 4 μg/mL,66.0%
same,Number of test isolates at MIC,Proteus mirabilis; 4 μg/mL,1
same,Cumulative percentage of isolates inhibited at MIC,Proteus mirabilis; 8 μg/mL,68.0%
same,Number of test isolates at MIC,Proteus mirabilis; 8 μg/mL,1
same,Cumulative percentage of isolates inhibited at MIC,Proteus mirabilis; 16 μg/mL,72.0%
same,Number of test isolates at MIC,Proteus mirabilis; 16 μg/mL,2
same,Cumulative percentage of isolates inhibited at MIC,Proteus mirabilis; 32 μg/mL,82.0%
same,Number of test isolates at MIC,Proteus mirabilis; 32 μg/mL,5
same,Cumulative percentage of isolates inhibited at MIC,Proteus mirabilis; 64 μg/mL,90.0%
same,Number of test isolates at MIC,Proteus mirabilis; 64 μg/mL,4
same,Cumulative percentage of isolates inhibited at MIC,Proteus mirabilis; 128 μg/mL,98.0%
same,Number of test isolates at MIC,Proteus mirabilis; 128 μg/mL,4
same,Cumulative percentage of isolates inhibited at MIC,Proteus mirabilis; >128 μg/mL,100.0%
same,Number of test isolates at MIC,Proteus mirabilis; >128 μg/mL,1
same,MIC50,Proteus mirabilis,0.5 µg/mL
same,MIC90,Proteus mirabilis,64 µg/mL
same,MIC range,Pseudomonas aeruginosa,0.12-32 ^ μg/mL
same,Mode,Pseudomonas aeruginosa,1 µg/mL
same,Cumulative percentage of isolates inhibited at MIC,Pseudomonas aeruginosa; 0.5 μg/mL,20.0%
same,Number of test isolates at MIC,Pseudomonas aeruginosa; 0.5 μg/mL,8
same,Cumulative percentage of isolates inhibited at MIC,Pseudomonas aeruginosa; 1 μg/mL,58.0%
same,Number of test isolates at MIC,Pseudomonas aeruginosa; 1 μg/mL,19
same,Cumulative percentage of isolates inhibited at MIC,Pseudomonas aeruginosa; 2 μg/mL,60.0%
same,Number of test isolates at MIC,Pseudomonas aeruginosa; 2 μg/mL,1
same,Cumulative percentage of isolates inhibited at MIC,Pseudomonas aeruginosa; 4 μg/mL,66.0%
same,Number of test isolates at MIC,Pseudomonas aeruginosa; 4 μg/mL,3
same,Cumulative percentage of isolates inhibited at MIC,Pseudomonas aeruginosa; 8 μg/mL,78.0%
same,Number of test isolates at MIC,Pseudomonas aeruginosa; 8 μg/mL,6
same,Cumulative percentage of isolates inhibited at MIC,Pseudomonas aeruginosa; 16 μg/mL,90.0%
same,Number of test isolates at MIC,Pseudomonas aeruginosa; 16 μg/mL,6
same,Cumulative percentage of isolates inhibited at MIC,Pseudomonas aeruginosa; 32 μg/mL,100.0%
same,Number of test isolates at MIC,Pseudomonas aeruginosa; 32 μg/mL,5
same,MIC50,Pseudomonas aeruginosa,1 µg/mL
same,MIC90,Pseudomonas aeruginosa,16 µg/mL
same,Number of test isolates at MIC,Pseudomonas aeruginosa; […],1
